Some results are limits rather than exact numbers.

In general, EC50 refers to the concentration giving half of the maximal effect. A higher EC50 goes with a need for much substance.

One assay has as its system HCoV 229E. Description: HCoV 229E cytopathic effect (CPE) assay, CellTiter Glo. It is filed as cell-based, human coronavirus (HCov) 229E. To be noted: protection of virus-induced CPE. As for the experimental part: Example 238: Evaluation of antiviral activity of compounds against human coronavirus (HCov) 229E and OC43 in the cytopathic effect (CPE) assays
Compounds were assayed using standard methods against multiple coronaviral strains, including HCoV 229E and OC43 strains. The antiviral activity of compounds was calculated based on the protection of the virus-induced CPE at each concentration normalized by the virus control.
Cytopathic effect (CPE) was measured by CellTiter Glo following the manufacturer's manual. The antiviral activity of compounds was calculated based on the protection of the virus-induced CPE at each concentration normalized by the virus control.
Cell viability was measured with CellTiter Glo.
`CC(C)(C)c1ccc(N(C(=O)[C@@]2(C)CCCN2C#N)C(C(=O)NC2CCCCC2)c2cccnc2)cc1` (single isomer, unassigned) [Compound 238 Isomer 2] displayed an EC50 of less than 2000 nM.

The compound `N#CN1C[C@H](O)C[C@@H]1C(=O)N(c1ccc(C2(C(F)(F)F)CC2)cc1)C(C(=O)NC1CCC(F)(F)CC1)c1cncc(F)c1` (single isomer, unassigned) [815 Isomer 2] had an EC50 of less than 2000 nM.

As to `CC(C)(C)c1ccc(N(C(=O)[C@H]2CCCN2C#N)C(C(=O)NC2CCCCC2)c2cccnc2)cc1` (single isomer, unassigned) [Compound 1248 Isomer 2], the EC50 was in the range of 2000 to 10000 nM.

Staying with this assay, now noted: unidentified human coronavirus, protection of virus-induced CPE.
In turn, `CC(C)(C)c1ccc(N(C(=O)[C@H]2CCCN2C#N)C(C(=O)NC2CCCCC2)c2cncc(F)c2)cc1` (stereo partly drawn) [Compound 475, (2R)—N-(4-(tert-butyl)phenyl)-1-cyano-N-(2-(cyclohexylamino)-1-(5-fluoropyridin-3-yl)-2-oxoethyl)pyrrolidine-2-carboxamide] showed an EC50 of less than 2000 nM.

In turn, `CC(C)(C)c1ccc(N(C(=O)C2CCC(F)(F)CN2C#N)C(C(=O)NC2CCCCC2)c2cccnc2)cc1` (stereo not shown) [Compound 885] displayed an EC50 of 2000 to 10000 nM.

In turn, `O=C(NC1CCCCC1)C(c1cnnc2ccccc12)N(C(=O)[C@H]1C[C@@H](O)CN1)c1ccc(S(F)(F)(F)(F)F)cc1` (stereo partly shown) [Compound 988] yielded a concentration giving a half-maximal response (EC50) of less than 2000 nM.

`CC(C)(C)c1ccc(N(C(=O)[C@H]2[C@H](F)CCN2C#N)C(C(=O)NC2CCCCC2)c2cccnc2)cc1` (stereo partly drawn) [Compound 910, (2S,3R)—N-(4-tert-butylphenyl)-1-cyano-N-[2-(cyclohexylamino)-2-oxo-1-(3-pyridyl)ethyl]-3-fluoro-pyrrolidine-2-carboxamide]: the EC50 was less than 2000 nM.

On to `COc1ccc(NC(=O)C(c2cccnc2)N(C(=O)[C@H]2CCCN2C#N)c2ccc(C(C)(C)C)cc2)cn1` (stereo partly drawn) [Compound 407, (2R)—N-(4-(tert-butyl)phenyl)-1-cyano-N-(2-((6-methoxypyridin-3-yl)amino)-2-oxo-1-(pyridin-3-yl)ethyl)pyrrolidine-2-carboxamide], for which the EC50 was less than 2000 nM.

The compound `CO[C@@H]1C[C@H](C(=O)N(c2ccc(S(F)(F)(F)(F)F)cc2)C(C(=O)N2CCNCC2)c2cccnc2)N(C#N)C1` (stereo partly shown) [Compound 1149] returned an EC50 of less than 2000 nM.

Consider `CC(C)(C)c1ccc(N(C(=O)[C@H]2CCCN2C#N)C(C(=O)NCCN2CCOCC2)c2cccnc2)cc1` (stereo partly drawn) [Compound 391, (2R)—N-(4-(tert-butyl)phenyl)-1-cyano-N-(2-((2-morpholinoethyl)amino)-2-oxo-1-(pyridin-3-yl)ethyl)pyrrolidine-2-carboxamide], for which the EC50 lay within 2000 to 10000 nM.

Turning to `CC(C)(C)c1ccc(N(C(=O)[C@H]2CCCN2C#N)C(C(=O)NC2CCCCC2)c2cccnc2)cc1` (single isomer, unassigned) [Compound 1248 Isomer 1], the EC50 was less than 2000 nM.

`N#CN1C[C@H](O)C[C@@H]1C(=O)N(c1ccc(C2(C(F)(F)F)CC2)cc1)C(C(=O)NC1CCC(F)(F)CC1)c1cncc(F)c1` (single isomer, unassigned) [815 Isomer 1] had an EC50 of less than 2000 nM.

On to `COc1cncc(C(C(=O)NC2CCCCC2)N(C(=O)[C@H]2C[C@@H](O)CN2C#N)c2ccc(C(C)(C)C)cc2)c1` (stereo partly shown) [Compound 992], for which the EC50 was in the range of 2000 to 10000 nM.

Consider `CC(C)(C)c1ccc(N(C(=O)[C@@]2(C)CCCN2C#N)C(C(=O)NC2CCCCC2)c2cccnc2)cc1` (single isomer, unassigned) [Compound 238 Isomer 1], for which the EC50 was in the range of 2000 to 10000 nM.

The compound `CC(C)(C)c1ccc(N(C(=O)[C@H]2CCCN2C#N)C(C(=O)N2CCOCC2)c2cccnc2)cc1` (stereo partly shown) [Compound 959] yielded an EC50 of 2000 to 10000 nM.

`CC(C)(C)c1ccc(N(C(=O)C2c3ccccc3CN2C#N)C(C(=O)NC2CCCCC2)c2cccnc2)cc1` (stereo not shown) [Compound 371] registered an EC50 of less than 2000 nM.

The values are drawn from patent US20220380347A1, “INHIBITORS OF CYSTEINE PROTEASES AND METHODS OF USE THEREOF” (Pardes Biosciences, Inc., priority 2020, published 2022).
